In brackets after ≈: the same amount, converted by molar mass.

The conditions of this data set: buffer; pH 7.4; 200.0 µM.
For `O=C(NCC1CCCO1)c1ccc(-c2cccc(C(F)(F)F)c2)o1` (configuration not stated), the kinetic solubility (in general, the concentration staying in solution when a stock, usually in DMSO, is diluted into the medium) stood at 38.4 µg/mL (≈ 113 µM).
`CCCS(=O)(=O)N1CCCC(C(=O)NCCc2ccccc2)C1` (configuration not stated) displayed a kinetic solubility of 48.5 µg/mL (≈ 143 µM).
For `O=C(CCS(=O)(=O)c1ccccc1)NC1CCCCC1`, the kinetic solubility was greater than 44.3 µg/mL.
As for `CC1Cc2ccccc2N1C(=O)COc1ccc2c(c1)OCO2` (configuration not stated), the figure is 43.1 µg/mL (≈ 138 µM); as for `O=C(/C=C/c1ccccc1Cl)NC1CCCCC1`, less than 0.6 µg/mL; as for `CC(=O)c1ccc(N2C(=O)C3C4C=CC(CC4)C3C2=O)cc1` (configuration not stated), greater than 44.3 µg/mL.
As for `c1ccc(Nc2nc(-c3ccccc3)ns2)cc1`, the figure is less than 0.2 µg/mL; as for `O=C(COC(=O)c1ccccc1Oc1ccccc1)NC1CC1`, greater than 46.7 µg/mL; as for `CC(C)(CNCc1ccccc1)NS(=O)(=O)c1ccccc1`, greater than 47.8 µg/mL.
As for `COCCNc1nc2nonc2nc1N1C[C@H]2CC[C@H]1C2`, the figure is greater than 43.5 µg/mL; as for `CCOC(=O)c1cn(CC#N)c2cc(F)c(F)cc2c1=O`, greater than 43.8 µg/mL; as for `CCCC(=O)Nc1ccc(C(=O)COC(=O)C2CC2)cc1`, 15.3 µg/mL (≈ 52.9 µM).
Take `CC(=O)Nc1nc(-c2ccccc2)cc(-c2ccco2)c1C#N`: the solubility (kinetic) is 2 µg/mL (≈ 6.59 µM).
The compound `C#CCOc1ccc(C2C(C#N)=C(N)Oc3cc(O)ccc32)cc1` (configuration not stated) showed a solubility (kinetic) of 34.5 µg/mL (≈ 108 µM).
For `COc1ccccc1/C=C/c1nc2ccc(OC(C)=O)cc2c(=O)o1`, the solubility (kinetic) is less than 0.7 µg/mL.
To `CC(N)Cc1c[nH]c2c1ccc1ccccc12.Cl` (configuration not stated) belongs 33.9 µg/mL; to `COCCNc1cnn(-c2ccccc2)c(=O)c1Cl`, greater than 42 µg/mL.
As for `Cc1cc(NC(=O)Cc2ccccc2C)no1`, the figure is 32.5 µg/mL (≈ 141 µM); as for `O=C(COC(=O)c1cc[n+]([O-])cc1)NC(=O)c1ccc(OC(F)F)cc1`, greater than 54.9 µg/mL.
To `COc1ccc(NCC(=O)Nc2cccc(C(F)(F)F)c2)cc1S(=O)(=O)N1CCOCC1` belongs 3.4 µg/mL (≈ 7.18 µM); to `O=C(Cc1ccc([N+](=O)[O-])cc1)Nc1ccc(Cl)cc1`, 4.5 µg/mL (≈ 15.5 µM).
Compound `COc1nc(/C=C/N(C)C)c([N+](=O)[O-])c(OC)n1` came in with a kinetic solubility of 17.2 µg/mL (≈ 67.7 µM).
To `CSc1ccc(CNCC(O)c2ccccc2)cc1.Cl` (configuration not stated) belongs greater than 46.5 µg/mL; to `O=C(Nc1ccon1)c1sc2cc(Cl)ccc2c1Cl`, less than 0.3 µg/mL; to `Cc1cccc(N2C(=O)C(Cl)=C(N3CCOCC3)C2=O)c1`, greater than 46 µg/mL.
As for `CCCC(C)NC(=O)c1sc2nc3n(c(=O)c2c1C)CCC3` (configuration not stated), the solubility (kinetic) was greater than 47.9 µg/mL.
As for `C/C(=N/O)c1ccc2ccc3ccccc3c2c1`, the figure is 0.6 µg/mL (≈ 2.55 µM); as for `CCOc1ccc2[nH]c3c(NCCC(C)C)ncnc3c2c1`, 0.6 µg/mL (≈ 2.01 µM).
As for `O=C(C[n+]1ccc(C(=O)c2ccccc2)cc1)Nc1ccccc1OC(F)F.[Cl-]`, the kinetic solubility is 59.4 µg/mL.
As for `O=C(OCC(=O)N1CCCCC1)c1c[nH]c2ccccc12`, the figure is greater than 42.9 µg/mL; as for `COc1ccc2c3c([nH]c2c1)C(C)=NCC3`, 30.6 µg/mL (≈ 143 µM).
As for `Cc1ccc(CC(=O)Nc2ccc(F)c([N+](=O)[O-])c2)cc1C`, the figure is 4.1 µg/mL (≈ 13.6 µM); as for `O=C(Nc1ncccn1)c1cccc(F)c1`, greater than 32.6 µg/mL; as for `CN(C)C(=O)COc1ccc(Oc2ccccc2)cc1`, 25.7 µg/mL (≈ 94.7 µM).
To `CCc1noc(C)c1C(=O)N(CCOC)c1c(N)n(CC(C)C)c(=O)[nH]c1=O` belongs 55.6 µg/mL (≈ 141 µM); to `CC(=O)Oc1ccc2c(=O)c(-c3nc4ccccc4s3)coc2c1`, 1 µg/mL (≈ 2.96 µM).
`CN(CC(=O)Nc1ccccc1)CC(=O)Nc1ccccc1Cl` displayed a kinetic solubility greater than 49.8 µg/mL.
Consider `COc1cc(S(=O)(=O)NC2CCCC2)c(OC)cc1C`, for which the kinetic solubility is 26.5 µg/mL (≈ 88.5 µM).
To `Cc1cccc(NC(=O)CCc2ccccc2)c1` belongs 35 µg/mL (≈ 146 µM); to `COc1ccc(NC(=O)CN(C)C(=O)CC2CCCCC2)cc1`, greater than 47.8 µg/mL.
As for `Cn1cccc1C(=O)OCC(=O)Nc1ccc2[nH]c(=O)[nH]c2c1`, the figure is 11.1 µg/mL (≈ 35.3 µM).
As for `CC(C(=O)NC1CCCC1)N1CCN(Cc2ccccc2)CC1` (configuration not stated), the figure is greater than 47.3 µg/mL; as for `Cc1ccccc1NC(=S)NC(=O)C1CCCCC1`, 1 µg/mL (≈ 3.62 µM).
Regarding `Cc1nc2ccccc2c(=O)n1Cc1ccco1`, the solubility (kinetic) was greater than 36 µg/mL.
With `O=C(CSc1ncc(C(F)(F)F)cc1Cl)N1CCNC1=O`, the solubility (kinetic) is greater than 51 µg/mL.
As for `COc1ccc(NC(=O)CN2C(=O)C(C)Oc3ccc(C)cc32)cc1` (configuration not stated), the figure is 9.6 µg/mL (≈ 28.2 µM).
The compound `O=C(Nc1ccccc1Cl)Nc1cccnc1Cl` came in with a solubility (kinetic) of 2.8 µg/mL (≈ 9.92 µM).
On to `Cc1ncc([N+](=O)[O-])n1CCOC(=O)C12CC3CC(CC(C3)C1)C2`, for which the solubility (kinetic) came out at 5.3 µg/mL (≈ 15.9 µM).
To `COc1ccc(S(=O)(=O)N(C)CC(=O)N2CCCC2)cc1OC` belongs greater than 51.4 µg/mL; to `CN(C)c1cccc(C(=O)Nc2nc3ccccc3[nH]2)c1`, 12.1 µg/mL (≈ 43.2 µM); to `Cc1nc([N+](=O)[O-])c(SCC(N)=O)n1Cc1ccccc1`, greater than 46 µg/mL.
To `CCOc1ccc(NC(=O)CCNC(=O)c2ccco2)cc1` belongs greater than 45.3 µg/mL.

(Values after PubChem BioAssay AID1996.)
